Results published in patent publication US20180311297A1, “PHARMACEUTICAL COMPOSITION FOR INCREASING CONTENT AND AVAILABILITY OF CYCLIC ADENOSINE MONOPHOSPHATE IN A BODY AND PREPARATION THEREOF” (priority 2012, published 2018).
Structures can show the parent of a compound that is named as a salt.

Key:
[1] = system: depression patients; conditions: STAR*D study, over 2800 depression patients; cited from earlier work
[2] = system: unpredictably long-term stressed rats; experiment: unpredictable long-term stimulus (CUMS) experiment on rats: sucrose intake measurement; type: in vivo, rat; conditions: CUMS model rats, 21 consecutive days; low dose of Embodiment 1 (15 mg/kg/d) or positive group; vs control P<0.01
Text: (§1) The inventor conducted animal behavior experiments, including the tail-hang experiment on mice, the forced-swim experiment on rats, the forced-swim experiment on mice, the unpredictable long-term stimulus experiment on rats, the olfactory bulb lesion experiment on rats and others, according to the pathogenetic mechanism and clinical symptoms of depression. 1.2 The pharmaceutical composition of Embodiment 1 was intragastrically administered to rats under the chronic unpredictable mild stress (CUMS) model with the dose of 15 mg/kg/d, 30 mg/kg/d and 60 mg/kg/d for 21 consecutive days.

[3] = system: forced-swim mice; experiment: forced-swim experiment on mice; type: in vivo; conditions: intragastric, one week; Embodiment 1 medium dose 40 mg/kg/d, or positive control; vs control P<0.05
Text: (§2) The inventor conducted animal behavior experiments, including the tail-hang experiment on mice, the forced-swim experiment on rats, the forced-swim experiment on mice, the unpredictable long-term stimulus experiment on rats, the olfactory bulb lesion experiment on rats and others, according to the pathogenetic mechanism and clinical symptoms of depression.

[4] = system: olfactory bulb lesion model rats; experiment: olfactory bulb lesion experiment: open field box test; type: in vivo, rat; conditions: 24 consecutive days, high dose of Embodiment 1 (60 mg/kg/d) or Paroxetine of 3 mg/kg/d, compared to control group
Text: The inventor conducted animal behavior experiments, including the tail-hang experiment on mice, the forced-swim experiment on rats, the forced-swim experiment on mice, the unpredictable long-term stimulus experiment on rats, the olfactory bulb lesion experiment on rats and others, according to the pathogenetic mechanism and clinical symptoms of depression. 1.3 The pharmaceutical composition of Embodiment 1 was intragastrically administered to olfactory bulb lesion model rats with the dose of 15 mg/kg/d, 30 mg/kg/d and 60 mg/kg/d for 24 consecutive days.

[5] = system: unpredictably long-term stressed rats; experiment: unpredictable long-term stimulus (CUMS) experiment on rats: jumping test; type: in vivo, rat; conditions: CUMS model rats, 21 consecutive days; low dose of Embodiment 1 (15 mg/kg/d) or positive group; vs control P<0.01
Text: as §1

[6] = system: unpredictably long-term stressed rats; experiment: unpredictable long-term stimulus (CUMS) experiment on rats: body weight measurement; type: in vivo, rat; conditions: CUMS model rats, 21 consecutive days; low dose of Embodiment 1 (15 mg/kg/d) or positive group; compared to control group
Text: as §1

[7] = system: forced-swim rats; experiment: forced-swim experiment on rats; type: in vivo, rat; conditions: intragastric, one week; Embodiment 1 medium dose 30 mg/kg/d, or positive control; vs control P<0.05
Text: as §2

[8] = system: tail-hanged mice; experiment: tail-hang experiment on mice; type: in vivo; conditions: intragastric, one week; Embodiment 1 medium dose 40 mg/kg/d, or positive control; vs control P<0.05
Text: as §2

[9] = system: unpredictably long-term stressed rats; experiment: unpredictable long-term stimulus (CUMS) experiment on rats: open field box test; type: in vivo, rat; conditions: CUMS model rats, 21 consecutive days; low dose of Embodiment 1 (15 mg/kg/d) or positive group; vs control P<0.01
Text: as §1

[10] = system: cAMP; experiment: level of cAMP in hippocampus of normal rats 8 hours after administration (ELISA); type: in vivo, rat; conditions: 8 hours after intragastric 5 mg/kg (positive control drug)
Description: 8 hours after normal rats were intragastrically administered with the pharmaceutical of Embodiment 1, their hippocampi were taken out. The variations in the levels of cAMP and phospho-CREB (p-CREB) in the hippocampus were determined using enzyme-linked immunosorbent assay (ELISA), the variations on the activities of the cAMP-dependent PKA were determined using bioluminescent assay, and the variations in the activities of PDE were determined using a fluorescence method. […] The experimental data were statistically analyzed and plotted using Origin […].5 software. 2. […] The sample was determined using the ParameterTM Cyclic AMP Assay ELISA kit (R&D Systems, Inc., U.S.). The sample was defrosted to room temperature, and the level of cAMP in the sample was determined using competitive ELISA. The value of optical density (OD) of the sample was determined at 450 nm using the multi-mode microplate reader, and the level of cAMP in the sample was calculated according to the standard curve. 5.1 The level of cAMP in the rat's hippocampus: The cAMP concentration in the homogenate of the rat's hippocampus was determined using the ELISA assay, and the level of cAMP contained in the hippocampus tissue was obtained by dividing the […], and is presented as pmol/g tissue (referring to FIG. 5).

[11] = system: phosphodiesterase 4 (PDE4); conditions: cited from earlier work

Question: For `Cl.O=C1CC2(CCCC2)CC(=O)N1CCCCN1CCN(c2ncccn2)CC1` [Buspar®], which remission rate [1] is on record?
Answer: The remission rate was “about 30%”.

Question: For `Br.CN(C)CCCC1(c2ccc(F)cc2)OCc2cc(C#N)ccc21` (stereo not shown) [Celexa®], which remission rate [1] is on record?
Answer: Its remission rate is “about 30%”.

Question: With `COc1ccc(C(CN(C)C)C2(O)CCCCC2)cc1.Cl` (stereo not shown) [Effexor®] as the compound, how does the remission rate [1] read?
Answer: Its remission rate is “about 30%”.

Question: For `Fc1ccc([C@@H]2CCNC[C@H]2COc2ccc3c(c2)OCO3)cc1` [Paroxetine, Paroxetine hydrochloride], which sucrose consumption [2] is on record?
Answer: The sucrose consumption was “significantly increased”.

Question: What about the “non-movement time for the forced-swim mice” value [3] of the same compound?
Answer: The value was “significantly shorter”.

Question: What about the “decrease of the horizontal movement and vertical movement caused by the olfactory bulb lesion (open field box test)” value [4] of the same compound?
Answer: The value was “significantly improved”.

Question: What about the “number of errors in rat jumping trial” value [5] of the same compound?
Answer: The value was “significantly decreased”.

Question: And the body weight gains [6]?
Answer: Its body weight gains is “significantly increased”.

Question: And the “non-movement time for the forced-swim rats” value [7]?
Answer: The value was “significantly shorter”.

Question: And the “non-movement time for the tail-hanged mice” value [8]?
Answer: Its value is “significantly shorter”.

Question: And the “horizontal movement and vertical movement” value [9]?
Answer: Its value is “significantly increased”.

Question: What about the “initiation of the cAMP-PKA-CREB (p-CREB) pathway” value [10] of the same compound?
Answer: The value was “cannot initiate”.

Question: For `COc1ccc(C2CNC(=O)C2)cc1OC1CCCC1` (stereo not shown) [Rolipram®], which side effects ([11]; background statement) is on record?
Answer: Its side effects is “severe emesis”.

Question: And the anti-depression effect ([11]; experimental results referred to in background)?
Answer: The anti-depression effect was “significant anti-depression effect”.

Question: Which remission rate [1] does the source give for `CC(NC(C)(C)C)C(=O)c1cccc(Cl)c1.Cl` (stereo not shown) [Wellbutrin®] here?
Answer: The remission rate was “about 30%”.

Question: With `CN[C@H]1CC[C@@H](c2ccc(Cl)c(Cl)c2)c2ccccc21.Cl` [Zoloft®] as the compound, how does the remission rate [1] read?
Answer: Its remission rate is “about 30%”.
